Data on two compounds can be found in patent publication US6410523B1, “Vitamin D derivatives substituted at the 2beta-position” (Chugai Seiyaku Kabushiki Kaisha, priority 1998, dated 2002).

Each structure is given as a SMILES string.

For test [1], the target named is T1, rat plasma vitamin D binding protein (Rattus norvegicus, UniProt P04276).
T1 construct: from tissue; host or cells: rat plasma
T1 sequence (P04276 17-476): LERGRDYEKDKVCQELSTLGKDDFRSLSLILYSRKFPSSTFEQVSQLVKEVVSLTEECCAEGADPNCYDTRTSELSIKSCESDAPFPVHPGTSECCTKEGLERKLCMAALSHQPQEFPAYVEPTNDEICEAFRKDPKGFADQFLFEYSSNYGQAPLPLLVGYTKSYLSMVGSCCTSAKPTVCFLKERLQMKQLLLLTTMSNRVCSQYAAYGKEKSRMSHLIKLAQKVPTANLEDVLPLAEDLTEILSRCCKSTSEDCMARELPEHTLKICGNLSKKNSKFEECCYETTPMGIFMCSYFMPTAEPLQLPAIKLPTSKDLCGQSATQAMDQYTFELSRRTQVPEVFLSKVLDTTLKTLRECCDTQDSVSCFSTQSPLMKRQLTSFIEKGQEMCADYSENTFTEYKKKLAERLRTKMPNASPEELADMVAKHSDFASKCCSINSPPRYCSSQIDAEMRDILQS
In words: Affinity for rat plasma vitamin D binding protein (3H-25-hydroxyvitamin D3 competition, dextran coated charcoal). To be noted: for 50% binding ability: amount of the test compound providing B/B0=0.5, 3H-25-hydroxyvitamin D3 as radioligand. The method, then:
A solution of a chick small intestine vitamin D receptor, or a solution of a rat plasma vitamin D binding protein was added, and the resulting mixture was left to stand. Then, a dextran coated charcoal solution was added, and the mixture was left to stand in ice cooling, and centrifuged. To the supernatant, a liquid scintillator was added, and the mixture was measured for radioactivity. B/B0 (B=the value of radioactivity measured upon addition of the test compound, B0=the value of radioactivity measured without addition of the test compound) was calculated to find the concentration of the test compound at which B/B0=0.5.
(§1) (50% binding ability refers to the amount of the test compound providing B/B0=0.5)

Test [2] has as its target T2, chick small intestine vitamin D receptor (Gallus gallus, UniProt O42392).
T2 construct: A solution of a chick small intestine vitamin D receptor; from tissue; host or cells: chick small intestine
T2 sequence (O42392 1-451): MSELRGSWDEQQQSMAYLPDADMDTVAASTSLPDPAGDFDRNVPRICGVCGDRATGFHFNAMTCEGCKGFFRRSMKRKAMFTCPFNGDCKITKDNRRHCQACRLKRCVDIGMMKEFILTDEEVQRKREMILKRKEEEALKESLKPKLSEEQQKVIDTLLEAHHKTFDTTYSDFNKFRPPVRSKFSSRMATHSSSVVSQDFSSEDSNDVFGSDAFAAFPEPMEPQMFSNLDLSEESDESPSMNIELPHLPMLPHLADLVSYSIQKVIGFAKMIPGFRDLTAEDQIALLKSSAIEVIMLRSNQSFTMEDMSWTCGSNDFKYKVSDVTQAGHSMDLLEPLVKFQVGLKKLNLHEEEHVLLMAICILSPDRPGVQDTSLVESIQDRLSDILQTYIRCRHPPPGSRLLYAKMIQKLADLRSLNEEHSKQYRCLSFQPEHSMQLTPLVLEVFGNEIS
Briefly: Affinity for chick small intestine vitamin D receptor (3H-1α,25-dihydroxyvitamin D3 competition, dextran coated charcoal). The note with it: amount of the test compound providing B/B0=0.5; 3H-1α,25-dihydroxyvitamin D3 as radioligand. In kind it is binding. As for the experimental part: A solution of a chick small intestine vitamin D receptor, or a solution of a rat plasma vitamin D binding protein was added, and the resulting mixture was left to stand. Then, a dextran coated charcoal solution was added, and the mixture was left to stand in ice cooling, and centrifuged. To the supernatant, a liquid scintillator was added, and the mixture was measured for radioactivity.
as §1

Turning to `C=C1/C(=C\C=C2/CCC[C@@]3(C)C2CC[C@@H]3[C@H](C)CCCC(C)(C)O)CC(O)C(OCCC(=O)OC)C1O` (stereo partly drawn) [Compound 2, 2β-(2-methoxycarbonylethyloxy)-1α, 3β,25-trihydroxy-9,10-secocholesta-5,7,10(19)-triene], the 50% binding ability in test [1] is on record as 4 ng; in test [2], 0.455 ng.

For `C=C1CC[C@H](O)C/C1=C/C=C1\CCC[C@]2(C)[C@@H]([C@H](C)CCCC(C)(C)O)CC[C@@H]12` [25-Hydroxyvitamin D3, 25-hydroxyvitamin D3], the Ratio in test [1] (affinity relative to 1,25-dihydroxyvitamin D3 = 1) amounted to 129. Moreover, the 50% binding ability in test [1] was found to be 0.209 ng.
